From US12662479B2 (Foghorn Therapeutics Inc., priority 2020, dated 2026)
Counter-ions that a name gives are not always drawn.

Assays:
[1] = target: T1, HiBit-BRM fusion protein (Homo sapiens, UniProt P51531); assay: HiBiT-BRM cell-based degradation assay (Nano-Glo HiBiT Lytic Detection, 24 h); conditions: HeLa cells expressing HiBiT-BRM; for DC50: read-out: BRM HiBit Degradation IC50; for BRM HiBit Degradation Maximum measured: top dose 30 μM
T1 construct: expressed in transfected cells
How it was run: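 Percent BRM loss was derived from HiBiT luminescence relative to DMSO-treated cells and cells given 2 μM of a known BRM/BRG1 degrader. Treatment lasted 24 h in HiBiT-BRM HeLa cells, with a top final concentration of 30 μM.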

[2] = target: T2, HiBit-BRG1 fusion protein (Homo sapiens, UniProt P51532); assay: HiBiT-BRG1 cell-based degradation assay (Nano-Glo HiBiT Lytic Detection, 24 h); conditions: HeLa cells expressing HiBit-BRG1 and LgBit; for DC50: read-out: BRG1 HiBit Degradation IC50; for Dmax: HeLa, top dose 30 μM, read-out: BRG1 HiBit Degradation Maximum measured
T2 construct: expressed in transfected cells
How it was run: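 Degradation is scaled from DMSO-treated cells (0%) to cells given 2 μM of a known BRM/BRG1 degrader (100%). HeLa cells stably carrying HiBiT-BRG1 plus LgBiT (5000/well) were lysed with Nano-Glo HiBiT detection reagent, shaken 10 min at RT, and luminescence read.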

T1 sequence (P51531 whole entry, the tested form may be a part): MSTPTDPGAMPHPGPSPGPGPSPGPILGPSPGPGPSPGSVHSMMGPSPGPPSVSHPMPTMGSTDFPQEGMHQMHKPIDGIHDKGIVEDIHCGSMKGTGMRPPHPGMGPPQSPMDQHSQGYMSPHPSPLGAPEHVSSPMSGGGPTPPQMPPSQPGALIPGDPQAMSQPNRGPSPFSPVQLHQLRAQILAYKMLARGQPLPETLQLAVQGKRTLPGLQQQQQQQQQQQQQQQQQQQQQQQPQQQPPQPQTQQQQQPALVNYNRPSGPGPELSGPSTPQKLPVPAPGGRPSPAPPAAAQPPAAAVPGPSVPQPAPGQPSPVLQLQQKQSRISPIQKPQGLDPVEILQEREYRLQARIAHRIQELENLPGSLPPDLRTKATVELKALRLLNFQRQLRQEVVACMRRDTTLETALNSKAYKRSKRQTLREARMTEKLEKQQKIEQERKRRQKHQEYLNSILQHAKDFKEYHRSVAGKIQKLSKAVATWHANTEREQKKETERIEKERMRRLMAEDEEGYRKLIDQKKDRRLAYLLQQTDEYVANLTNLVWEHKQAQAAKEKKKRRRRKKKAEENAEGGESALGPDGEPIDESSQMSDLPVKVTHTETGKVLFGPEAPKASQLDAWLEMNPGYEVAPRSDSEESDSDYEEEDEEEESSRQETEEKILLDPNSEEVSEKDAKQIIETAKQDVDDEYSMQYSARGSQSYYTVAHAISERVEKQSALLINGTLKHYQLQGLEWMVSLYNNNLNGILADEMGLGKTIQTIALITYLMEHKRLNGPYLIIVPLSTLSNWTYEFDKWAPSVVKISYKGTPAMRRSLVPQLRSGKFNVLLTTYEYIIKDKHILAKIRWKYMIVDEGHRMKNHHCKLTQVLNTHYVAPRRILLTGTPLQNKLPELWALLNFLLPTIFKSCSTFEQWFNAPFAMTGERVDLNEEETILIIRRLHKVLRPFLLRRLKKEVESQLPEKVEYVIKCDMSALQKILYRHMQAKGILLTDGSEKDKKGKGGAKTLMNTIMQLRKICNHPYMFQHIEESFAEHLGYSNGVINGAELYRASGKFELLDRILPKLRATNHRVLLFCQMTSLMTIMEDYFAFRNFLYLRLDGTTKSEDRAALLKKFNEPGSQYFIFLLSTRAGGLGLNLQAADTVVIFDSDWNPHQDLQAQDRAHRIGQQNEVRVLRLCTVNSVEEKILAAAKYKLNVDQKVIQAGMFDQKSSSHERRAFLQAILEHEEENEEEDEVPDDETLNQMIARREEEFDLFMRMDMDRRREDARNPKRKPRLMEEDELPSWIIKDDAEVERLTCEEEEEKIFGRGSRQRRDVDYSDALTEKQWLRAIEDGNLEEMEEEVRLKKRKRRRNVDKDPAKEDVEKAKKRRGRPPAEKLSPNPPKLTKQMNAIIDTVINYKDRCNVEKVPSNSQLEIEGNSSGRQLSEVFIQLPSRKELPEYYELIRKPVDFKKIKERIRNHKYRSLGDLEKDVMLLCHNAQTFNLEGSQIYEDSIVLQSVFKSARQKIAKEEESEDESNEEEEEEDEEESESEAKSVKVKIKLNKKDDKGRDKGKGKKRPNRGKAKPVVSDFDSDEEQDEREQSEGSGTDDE
T2 sequence (P51532 whole entry, the tested form may be a part): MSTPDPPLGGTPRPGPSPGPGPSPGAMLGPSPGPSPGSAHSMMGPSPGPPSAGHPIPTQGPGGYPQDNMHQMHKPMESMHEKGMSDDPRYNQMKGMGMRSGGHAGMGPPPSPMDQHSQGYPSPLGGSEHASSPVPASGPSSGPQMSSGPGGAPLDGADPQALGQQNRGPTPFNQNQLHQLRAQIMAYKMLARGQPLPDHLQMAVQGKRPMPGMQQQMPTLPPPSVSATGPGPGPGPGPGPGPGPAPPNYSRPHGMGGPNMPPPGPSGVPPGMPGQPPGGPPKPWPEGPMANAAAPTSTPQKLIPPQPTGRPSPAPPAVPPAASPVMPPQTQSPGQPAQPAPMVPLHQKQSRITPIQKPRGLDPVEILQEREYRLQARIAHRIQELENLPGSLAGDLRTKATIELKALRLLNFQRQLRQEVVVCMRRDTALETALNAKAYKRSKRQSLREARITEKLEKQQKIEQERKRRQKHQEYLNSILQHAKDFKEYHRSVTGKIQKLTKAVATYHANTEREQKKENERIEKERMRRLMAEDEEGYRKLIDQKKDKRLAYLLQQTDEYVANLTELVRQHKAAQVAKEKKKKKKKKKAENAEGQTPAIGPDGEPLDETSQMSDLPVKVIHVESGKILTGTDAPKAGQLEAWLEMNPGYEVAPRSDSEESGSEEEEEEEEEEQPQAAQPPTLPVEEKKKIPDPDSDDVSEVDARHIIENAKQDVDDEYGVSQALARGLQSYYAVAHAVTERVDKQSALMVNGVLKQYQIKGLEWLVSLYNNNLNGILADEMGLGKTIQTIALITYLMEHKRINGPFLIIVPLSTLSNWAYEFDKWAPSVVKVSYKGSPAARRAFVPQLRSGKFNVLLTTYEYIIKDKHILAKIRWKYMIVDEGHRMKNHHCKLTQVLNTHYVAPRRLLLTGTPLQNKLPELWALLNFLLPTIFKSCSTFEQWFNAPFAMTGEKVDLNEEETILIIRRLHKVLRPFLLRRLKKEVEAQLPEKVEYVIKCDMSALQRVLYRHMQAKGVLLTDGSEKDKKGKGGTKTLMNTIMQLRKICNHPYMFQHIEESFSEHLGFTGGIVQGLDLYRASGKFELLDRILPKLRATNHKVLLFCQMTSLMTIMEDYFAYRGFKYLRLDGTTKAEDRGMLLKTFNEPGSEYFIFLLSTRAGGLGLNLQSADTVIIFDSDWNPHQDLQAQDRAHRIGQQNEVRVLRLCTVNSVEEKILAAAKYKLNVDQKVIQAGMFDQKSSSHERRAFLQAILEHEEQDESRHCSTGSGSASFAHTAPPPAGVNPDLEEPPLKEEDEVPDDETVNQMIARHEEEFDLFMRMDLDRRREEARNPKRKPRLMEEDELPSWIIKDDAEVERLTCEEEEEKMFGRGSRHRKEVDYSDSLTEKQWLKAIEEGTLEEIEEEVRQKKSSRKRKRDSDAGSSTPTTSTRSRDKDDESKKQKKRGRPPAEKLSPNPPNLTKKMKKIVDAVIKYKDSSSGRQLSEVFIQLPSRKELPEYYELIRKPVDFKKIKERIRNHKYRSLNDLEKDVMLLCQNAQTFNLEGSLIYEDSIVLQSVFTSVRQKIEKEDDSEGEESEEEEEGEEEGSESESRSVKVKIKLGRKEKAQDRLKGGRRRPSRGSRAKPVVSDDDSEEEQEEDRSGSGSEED

| DC50 [1] [µM] | BRM HiBit Degradation Maximum measured [1] | DC50 [2] [µM] | Dmax [2] [%] | Structure (SMILES) |
| --- | --- | --- | --- | --- |
| > 10 | C (‘C’ = Maximum degradation <50%) | 0.1 to 1 | 50 to 75 | CS(=O)(=O)n1ccc(C(=O)N[C@@H](COCc2ccc(C(=O)N3CCN(CCCCCOc4ccc5c(c4)C(=O)N(C4CCC(=O)NC4=O)C5=O)CC3)cc2)C(=O)Nc2nc(-c3ccccc3)cs2)c1 (stereo partly drawn) [Compound 233, (2S)-3-([4-[4-(5-[[2-(2,6-dioxopiperidin-3-yl)-1,3-dioxoisoindol-5-yl]oxy]pentyl)piperazine-1-carbonyl]phenyl]methoxy)-2-[(1-methanesulfonylpyrrol-3-yl)formamido]-N-(4-phenyl-1,3-thiazol-2-yl)propanamide] |
| > 10 | C (‘C’ = Maximum degradation <50%) | > 10 | < 50 | CS(=O)(=O)n1ccc(C(=O)NCC(=O)Nc2nc(-c3cccc(-c4ccnc(C5(C(=O)N6CC(COc7ccc8c(c7)C(=O)N(C7CCC(=O)NC7=O)C8=O)C6)CC5)c4)c3)cs2)c1 (stereo not shown) [Compound 107, N-(2-((4-(3-(2-(1-(3-(((2-(2,6-dioxopiperidin-3-yl)-1,3-dioxoisoindolin-5-yl)oxy)methyl)azetidine-1-carbonyl)cyclopropyl)pyridin-4-yl)phenyl)thiazol-2-yl)amino)-2-oxoethyl)-1-(methylsulfonyl)-1H-pyrrole-3-carboxamide] |
| > 10 | C (‘C’ = Maximum degradation <50%) | > 10 | < 50 | CN1C(=O)CCC(N2C(=O)c3cccc(OCC(=O)NCCCCCCCCNC(=O)C4(c5cc(-c6cccc(-c7csc(NC(=O)CNC(=O)c8ccn(S(C)(=O)=O)c8)n7)c6)ccn5)CC4)c3C2=O)C1=O (stereo not shown) [Compound 129, N-[2-[[4-[3-[2-[1-[8-[[2-[2-(1-methyl-2,6-dioxo-3-piperidyl)-1,3-dioxo-isoindolin-4-yl]oxyacetyl]amino]octylcarbamoyl]cyclopropyl]-4-pyridyl]phenyl]thiazol-2-yl]amino]-2-oxo-ethyl]-1-methylsulfonyl-pyrrole-3-carboxamide] |
| > 10 | C (‘C’ = Maximum degradation <50%) | > 10 | < 50 | CS(=O)(=O)n1ccc(C(=O)N[C@@H](CCOCCCC(=O)NCCOCCOCCOCCNC(=O)COc2cccc3c2C(=O)N(C2CCC(=O)NC2=O)C3=O)C(=O)Nc2nc(-c3ccccc3)cs2)c1 (stereo partly drawn) [Compound 258, (2S)-4-(3-[[2-(2-[2-[2-(2-[[2-(2,6-dioxopiperidin-3-yl)-1,3-dioxoisoindol-4-yl]oxy]acetamido)ethoxy]ethoxy]ethoxy)ethyl]carbamoyl]propoxy)-2-[(1-methanesulfonylpyrrol-3-yl)formamido]-N-(4-phenyl-1,3-thiazol-2-yl)butanamide] |
| > 10 | C (‘C’ = Maximum degradation <50%) | > 10 | < 50 | CS(=O)(=O)n1ccc(C(=O)N[C@@H](CCOCCCC(=O)NCCC2CCN(c3ccc4c(c3)C(=O)N(C3CCC(=O)NC3=O)C4=O)CC2)C(=O)Nc2nc(-c3ccccc3)cs2)c1 (stereo partly drawn) [Compound 277, (2S)-4-[3-[(2-[1-[2-(2,6-dioxopiperidin-3-yl)-1,3-dioxoisoindol-5-yl]piperidin-4-yl]ethyl)carbamoyl]propoxy]-2-[(1-methanesulfonylpyrrol-3-yl)formamido]-N-(4-phenyl-1,3-thiazol-2-yl)butanamide] |
| > 10 | C (‘C’ = Maximum degradation <50%) | > 10 | < 50 | CS(=O)(=O)n1ccc(C(=O)NCC(=O)Nc2nc(-c3cccc(-c4ccnc(N5CCN(c6ccc7c(c6)C(=O)N(C6CCC(=O)NC6=O)C7=O)CC5)c4)c3)cs2)c1 (stereo not shown) [Compound 165, N-[4-[3-(2-[4-[2-(2,6-dioxopiperidin-3-yl)-1,3-dioxoisoindol-5-yl]piperazin-1-yl]pyridin-4-yl)phenyl]-1,3-thiazol-2-yl]-2-[(1-methanesulfonylpyrrol-3-yl)formamido]acetamide trifluoroacetate] |
| > 10 | C (‘C’ = Maximum degradation <50%) | > 10 | < 50 | Cc1c(C(=O)NCC(=O)Nc2nc(-c3cccc(-c4ccnc(N(C)CC(=O)NCCCCCNc5cccc6c5C(=O)N(C5CCC(=O)NC5=O)C6=O)c4)c3)cs2)cn(S(=O)(=O)C(C)C)c1C (stereo not shown) [Compound 91, N-[2-[[4-[3-[2-[[2-[5-[[2-(2,6-dioxo-3-piperidyl)-1,3-dioxo-isoindolin-4-yl]amino]pentylamino]-2-oxo-ethyl]-methyl-amino]-4-pyridyl]phenyl]thiazol-2-yl]amino]-2-oxo-ethyl]-1-isopropylsulfonyl-4,5-dimethyl-pyrrole-3-carboxamide] |
| > 10 | C (‘C’ = Maximum degradation <50%) | > 10 | < 50 | CS(=O)(=O)n1ccc(C(=O)NCC(=O)Nc2nc(C3CCCN(C(=O)CCCCCCCOc4cccc5c4C(=O)N(C4CCC(=O)NC4=O)C5=O)C3)cs2)c1 (stereo not shown) [Compound 148, N-{4-[1-(8-{[2-(2,6-dioxopiperidin-3-yl)-1,3-dioxo-2,3-dihydro-1H-isoindol-4-yl]oxy}octanoyl)piperidin-3-yl]-1,3-thiazol-2-yl}-2-[(1-methanesulfonyl-1H-pyrrol-3-yl)formamido]acetamide] |
| > 10 | C (‘C’ = Maximum degradation <50%) | > 10 | < 50 | CS(=O)(=O)n1ccc(C(=O)NCC(=O)Nc2nc(-c3cccc(-c4ccnc(N5CCN(C(=O)C6CC6CNC(=O)COc6cccc7c6C(=O)N(C6CCC(=O)NC6=O)C7=O)CC5)c4)c3)cs2)c1 (stereo not shown) [Compound 32, N-[2-[[4-[3-[2-[4-[2-[[[2-[2-(2,6-dioxo-3-piperidyl)-1,3-dioxo-isoindolin-4-yl]oxyacetyl]amino]methyl]cyclopropanecarbonyl]piperazin-1-yl]-4-pyridyl]phenyl]thiazol-2-yl]amino]-2-oxo-ethyl]-1-methylsulfonyl-pyrrole-3-carboxamide] |
| > 10 | C (‘C’ = Maximum degradation <50%) | > 10 | < 50 | CS(=O)(=O)n1ccc(C(=O)NCC(=O)Nc2nc(-c3cccc(-c4ccn(CC(=O)N5CCC(C6CCN(C(=O)COc7cccc8c7C(=O)N(C7CCC(=O)NC7=O)C8=O)CC6)CC5)n4)c3)cs2)c1 (stereo not shown) [Compound 4, N-[2-[[4-[3-[1-[2-[4-[1-[2-[2-(2,6-dioxo-3-piperidyl)-1,3-dioxoisoindolin-4-yl]oxyacetyl]-4-piperidyl]-1-piperidyl]-2-oxo-ethyl]pyrazol-3-yl]phenyl]thiazol-2-yl]amino]-2-oxo-ethyl]-1-methylsulfonyl-pyrrole-3-carboxamide] |

| Structure (SMILES) | DC50 [1] [µM] | BRM HiBit Degradation Maximum measured [1] | DC50 [2] [µM] | Dmax [2] [%] |
| --- | --- | --- | --- | --- |
| CS(=O)(=O)n1ccc(C(=O)N[C@@H](COCc2ccc(CNC(=O)CCN3CC4(C3)CN(c3ccc5c(c3)C(=O)N(C3CCC(=O)NC3=O)C5=O)C4)cc2)C(=O)Nc2nc(-c3ccccc3)cs2)c1 (stereo partly drawn) [Compound 176, (2S)-3-([4-[(3-[6-[2-(2,6-dioxopiperidin-3-yl)-1,3-dioxoisoindol-5-yl]-2,6-diazaspiro[3.3]heptan-2-yl]propanamido)methyl]phenyl]methoxy)-2-[(1-methanesulfonylpyrrol-3-yl)formamido]-N-(4-phenyl-1,3-thiazol-2-yl)propanamide] | 0.1 to 1 | B (‘B’ = Maximum degradation ≥50% and ≤75%) | 0.1 to 1 | 50 to 75 |
| Cc1ncsc1-c1ccc(CNC(=O)[C@@H]2C[C@@H](O)CN2C(=O)[C@@H](NC(=O)COCCOCCOCCOCC(=O)NCc2cccc(-c3cccc(-c4csc(NC(=O)CNC(=O)c5ccn(S(C)(=O)=O)c5)n4)c3)c2)C(C)(C)C)cc1 [Compound 121, N1-((S)-1-((2S,4R)-4-hydroxy-2-((4-(4-methylthiazol-5-yl)benzyl)carbamoyl)pyrrolidin-1-yl)-3,3-dimethyl-1-oxobutan-2-yl)-N14-((3′-(2-(2-(1-(methylsulfonyl)-1H-pyrrole-3-carboxamido)acetamido)thiazol-4-yl)-[1,1′-biphenyl]-3-yl)methyl)-3,6,9,12-tetraoxatetradecane-1,14-diamide] | 1 to 10 | B (‘B’ = Maximum degradation ≥50% and ≤75%) | 1 to 10 | 50 to 75 |
| Cc1ncsc1-c1ccc(CNC(=O)[C@@H]2C[C@@H](O)CN2C(=O)[C@@H](NC(=O)CCCCCC(=O)N2CCN(c3cc(-c4cccc(-c5csc(NC(=O)CNC(=O)c6ccn(S(C)(=O)=O)c6)n5)c4)ccn3)CC2)C(C)(C)C)cc1 [Compound 86, N-(2-((4-(3-(2-(4-(7-(((S)-1-((2S,4R)-4-hydroxy-2-((4-(4-methylthiazol-5-yl)benzyl)carbamoyl)pyrrolidin-1-yl)-3,3-dimethyl-1-oxobutan-2-yl)amino)-7-oxoheptanoyl)piperazin-1-yl)pyridin-4-yl)phenyl)thiazol-2-yl)amino)-2-oxoethyl)-1-(methylsulfonyl)-1H-pyrrole-3-carboxamide] | 0.1 to 1 | B (‘B’ = Maximum degradation ≥50% and ≤75%) | 0.1 to 1 | 50 to 75 |
